The term Kd denotes the constant that tells how readily two partners part at equilibrium. A higher Kd goes with weaker binding.

These results are taken from US20250163122A1, “COMPOSITIONS AND METHODS FOR TREATING AIRWAY MUCUS DYSFUNCTION” (BOARD OF REGENTS, THE UNIVERSITY OF TEXAS SYSTEM, priority 2022, published 2025).

Series [1] deals with airway lumenal mucus in mouse lung. As to the kind of experiment: Airway lumenal mucus accumulation in mice. Type of series: in vivo. To be noted: pretreatment, aerosol 200 μM, IL-13 then methacholine. The method, then:
To measure airway lumenal mucus content, mucous metaplasia was induced as above, then mucin secretion and bronchoconstriction were induced by exposure for 10 min to an aerosol of 150 mM methacholine. Lungs were harvested and fixed by immersion for 48 h at 4° C. to avoid displacement of lumenal mucus and using methanol-based Carnoy's solution (methacarn) for fixation to minimize changes in mucus volume. A single transverse 5 μm section was taken through the axial bronchus of the left lung between lateral branches 1 and 2 and stained with PAFS as above to evaluate intracellular mucin to ensure secretion had been stimulated. […]
To measure the efficiency of stimulated mucin secretion and the extent of mucus accumulation in the airway lumen of WT mice treated with peptides, the same procedures as those used for analysis of Syt2 mutant mice were followed, except that both outcomes were measured in the same mouse by fixation of the left lung by inflation with formalin to measure mucin secretion and fixation of the right lung by immersion in methacarn to measure mucus accumulation. […] In addition, a MicroSprayer Aerosolizer (Penn-Century) was used for peptide delivery to the airways, secretion was measured in the left axial bronchus at a site 3 mm distal to the site used in the Syt2 mutant mice, and mucus accumulation was measured in the right caudal lobe.

Series [2] relates to fractional secretion of intracellular mucin in mouse airways. The experiment in a line: Stimulated mucin secretion in mice (IL-13, then methacholine). Type of series: in vivo. To be noted: pretreatment, aerosol 200 μM 30 min before secretagogue, IL-13 mice. As for the experimental part: Mucin secretion and airway mucus occlusion in mice. The efficiency of stimulated mucin secretion and the extent of mucus accumulation in the airway lumen of Syt2 mutant mice were measured as described previously (Jaramillo et al, 2019). Briefly, to increase intracellular mucin content (i.e., induce mucous metaplasia), 3 μg IL-13 (BioLegend) in 40 μl PBS was instilled every other day×3 into the posterior pharynx of mice under isoflurane anesthesia to be aspirated during inhalation. […] Fractional mucin secretion was calculated as the percentage […] mucin content of mice of the same genotype treated only with IL-13. To measure intracellular airway epithelial mucin content, lungs were inflated via the trachea with 10% neutral buffered formalin to 20 cm water pressure for 24 h at 4° C., then embedded in paraffin. […] Images were acquired using an upright microscope (Olympus BX 60) with a ×40 NA 0.75 objective lens, and intracellular mucin was measured around the circumferential section of the axial bronchus using ImagePro (Media Cybernetics). Images were analyzed by investigators blinded to mouse genotype and treatment, and data are presented as the epithelial mucin volume density, signifying the measured volume of mucin overlying a unit area of epithelial baseline lamina. […]

Series [3] relates to Muc5ac secretion from HAECs. The experiment in a line: Mucin (Muc5ac) secretion assay in HAECs. It is filed as cell-based, human. The method, then: Cell culture. […] Growth medium was replaced every two days. […] The apical medium was replaced after 48 h.
Mucin secretion assay in HAECs. […] In brief, for the 24 h peptide treatment, 20 μl of DMEM+/−100 μM peptides was added to the apical surface 24 h before stimulation. On the day of the assay, cells were washed 5 times with 100 μl DMEM for 1 h for each wash on the apical side. Apical supernatants were collected after every wash ([…]), then 100 μl of DMEM+/−100 μM peptides was added to the apical surface and HAECs incubated for 15 min before collecting the supernatant (baseline wash). HAECs were then incubated for an additional 15 min with 100 μl DMEM+/−100 μM ATP (Sigma) before collection of supernatants (experimental washes). Following sample collection, cells were lysed in 100 μl of lysis buffer (lysate) containing 50 mM Tris-HCl pH 7.2, 1 mM EDTA, 1 mM EGTA, 1% Triton-X (Sigma), protease inhibitor cOmplete mini EDTA-free and phosphatase inhibitor PhosSTOP (Roche, Germany). The protocol was adapted for 30 min peptide treatment as follows. After wash 5, 100 μl of DMEM+/−10 μM or 100 μM of peptides was added to the apical surface and HAECs incubated for 30 min (baseline wash). HAECs were then incubated for 30 min with 100 μl DMEM+/−100 μM ATP to collect experimental washes.
All samples were diluted 1:10 in PBS (washes and cell lysates) and 50 μl of each sample were vacuum-aspirated onto a 0.45 μm pore nitrocellulose membrane using the Bio-Dot® MicrofiltrationApparatus (Bio-Rad). […] All steps were performed at room temperature. Fluorescent signals were acquired using the Odyssey® Fc Imaging System (Li-Cor®, USA) and quantified using ImageJ (v.2.0.0; NIH, USA). Equal volumes of samples were loaded on the gels for control and peptide treatments. […] Stimulated secretion is therefore normalized to baseline secretion within individual filters to account for filter to filter heterogeneities.

Series [4] has as its system mouse airway epithelial cells. The experiment in a line: Mucin secretion without secretagogue after peptide aerosol in mice with mucous metaplasia. It is filed as in vivo. The note with it: mouse, in vivo. The method, then: To investigate whether SP9 could have therapeutic benefit in vivo, SP9 conjugated to CPPs and fluorophores was introduced into mouse airways using a microsprayer inserted into the distal trachea under direct visualization with a laryngoscope. […] All subsequent studies of airway mucin secretion were therefore performed in the distal axial bronchus. […] This effect was not observed with the injection of buffer alone.
The peptide solution was injected into the airway under pressure to generate a droplet aerosol. A high concentration of peptides was used in these experiments in part because the solution is expected to be in contact with the airway epithelium only briefly and to mostly end up in the alveolar region.

The target in series [5] is T1, Syt2 C2B (Rattus norvegicus (Rat), UniProt P29101 272-422).
T1 construct: also called C2B domain of Syt2
As to the kind of experiment: bulk fluorescence anisotropy, Cy3-labeled peptide with varying concentrations of C2B.

The target of series [6] is T2, Syt1 C2B (Homo sapiens (Human), UniProt P21579 272-422).
T2 construct: Expressed as a GST fusion in E. coli and the tag cleaved with PreScission protease; also called C2B domain of Syt1; Syt1C2B, aa 271-421
Described as above.

Series [7] addresses T1, Syt2 C2B. The experiment in a line: bulk fluorescence anisotropy, Cy3-labeled peptide with varying concentrations of unlabeled C2B; Hill fit with coefficient constrained to one. (In fluorescence polarisation assays a small probe gives low polarisation when free and higher when bound to something large.)
Series [8] deals with T2, Syt1 C2B. The description is as above.
[9] abbreviates: 10 μM peptide, 30 min pre-incubation, metaplastic conditions.

Bridges are numbered along the chain shown (N, C = ends). Where no end group is shown, it is not given here. [ ]: non-standard residue; d: D form. S5 = C=CCCC[C@](C)(N)C(=O)O

T2 sequence (P21579 272-422 limits assumed): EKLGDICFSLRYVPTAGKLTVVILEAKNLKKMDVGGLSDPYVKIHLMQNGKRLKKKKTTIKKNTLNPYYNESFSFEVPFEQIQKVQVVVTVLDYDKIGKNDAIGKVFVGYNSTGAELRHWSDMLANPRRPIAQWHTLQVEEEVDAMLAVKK
T1 sequence (P29101 272-422 limits assumed): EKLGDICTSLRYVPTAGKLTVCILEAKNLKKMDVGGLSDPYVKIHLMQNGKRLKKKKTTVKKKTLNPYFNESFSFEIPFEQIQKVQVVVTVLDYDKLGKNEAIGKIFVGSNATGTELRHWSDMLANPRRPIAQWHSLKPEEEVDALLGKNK

As for “H2N-RQIKIWFQNRRMKWKKEESKDAGIRTLVMLDEQ-(C/Cy3Mal)-amide (H-RQIKIWFQNRRMKWKKEESKDAGIRTLVMLDEQ-{C(Cy3 maleimide)-NH2}) [PEN-P9-Cy3, non-stapled control peptide with penetratin and Cy3, reference compound]”, in series [1], the “effect on airway lumenal mucus accumulation in the right lung” value is recorded as “no effect”. The “effect on fractional secretion of intracellular mucin stimulated by methacholine” value in series [2] is on record as “no effect”. In series [3] (setting [9]), the “effect on stimulated secretion” value is recorded as “no effect”.
As for “H2N-RQIKIWFQNRRMKWKKEE(S5)KDA(S5)IR(S5)LVM(S5)DEQ-(C/Cy3Mal)-amide [PEN-SP9-Cy3]”, the “mucin secretion of Cy3-labeled cells without a secretagogue (side-effect)” value in series [4] is given as “did not show this problem”. The “reduction of airway lumenal mucus accumulation in the right lung” value in series [1] is listed as 33.1%. For the same molecule, the “reduction of fractional secretion of intracellular mucin stimulated by methacholine” value in series [2] is 82.3%. For the same molecule, in series [3] (setting [9]), the “reduction of stimulated (IL-13+ATP) Muc5ac secretion” value was 48%. Besides, in series [3] (100 μM peptide for 24 h before stimulation, metaplastic HAECs), the “reduction of stimulated Muc5ac secretion” value was 73%.

B1: P0-Cy3 (peptide)
peptide: EESKDAGIRTLVMLDEQGEQLD-{C(Cy3 maleimide)-NH2}
notes: Labeled control peptide of the anisotropy assay; also called PO-Cy3; Cy3-labeled P0
On to B1, for which the binding result in series [5] and in series [6] was “no binding” in each case.

B2: SP9-Cy3 (peptide)
peptide: Ac-EE[S5]KDA[S5]IR[S5]LVM[S5]DEQ
modifications: staple 10-14, 3-7; not fully specified (C-terminus); printed as Ac-EE(S5)KDA(S5)IR(S5)LVM(S5)DEQ-(C/Cy3Mal)-amide; also: Cy3 maleimide on C-terminal Cys
notes: Synthetic hydrocarbon-stapled peptide; This Cy3-labeled form was used in the bulk fluorescence anisotropy assay, diluted to 10 nM; also called Cy3 labeled SP9; Cy3-labeled SP9
For the molecule B2, the equilibrium dissociation constant (Kd) was 35 µM in series [7] and 24 µM in series [8].
